Where two headings read alike, the source gives them in different places.
Key:
two-spotted spider mites = experiment: Test Example 1: acaricidal activity, dipping of kidneybean leaves infested with two-spotted spider mites; type: in vivo; settings: for activity at 1.25 ppm: 1.25 p.p.m.; for activity at 2.5 ppm: 2.5 p.p.m.; for activity at 5 ppm / activity at 10 ppm / activity at 20 ppm: read-out: acaricidal activity (%); for activity at 0.04 ppm: 0.04 p.p.m.; for activity at 0.08 ppm: 0.08 p.p.m.; for activity at 0.16 ppm: 0.16 p.p.m.; for activity at 0.31 ppm: 0.31 p.p.m.; for activity at 0.63 ppm: 0.63 p.p.m.
Solubility in solvents = type: physicochemical; settings: "do." = same as A1
[1] = Alcohol solution, neutralization titration method (pKa); type: physicochemical
Source text: |Alcohol solution, |neutralization pH ranging |titration method

European red mites = experiment: Test Example 2: spraying of apple leaves infested with European red mites; type: in vivo; settings: 5 days after spraying, non-treated 88/102
Method: An emulsifiable concentrate containing 20% of a of a crude B-41, which had been obtained by purifying two times according to alumina column chromatography the brown oily substance prepared in Example 1, was diluted to a given concentration to prepare a chemical solution. This chemical solution was sprayed to apple leaves infested with about 100 European red mites and, 5 days thereafter, the number of living mites was counted.

citrus red mites = experiment: Test Example 3: acaricidal activity, spraying of orange leaves infested with citrus red mites; type: in vivo; settings: after 24 hours
Method: This chemical solution was sprayed to orange leaves infested with citrus red mites, and the acaricidal activity (%) after 24 hours was calculated.

rice stem borer = experiment: Test Example 5: mortality of rice stem borer larvae in rice plants; type: in vivo, rice stem borer of 1st generation; settings: 120 h, read-out: mortality (%) of the larvae
Method: Eggs of rice stem borer of 1st generation were inoculated to rice plants (variety "Kinmaze"), which had been planted in 200 cm^2 pots, and were hatched to allow the larvae invade the stems. Subsequently, a wettable powder containing 40% of a crude B-41, which had been obtained by purifying two times according to alumina column chromatography the brown oily substance prepared in Example 1, was diluted to a given concentration and then sprayed to the plants in a proportion of 100 cc. per pot. 5 Days thereafter, the stems were split to examine the alive and dead of the larvae, and the mortality (%) of the larvae was calculated.

Row | Compound | pKa (No pKa at pH ranging from 2 to 12) [1] | activity at 1.25 ppm (two-spotted spider mites; after 24 hours) [%] | activity at 2.5 ppm (two-spotted spider mites; after 24 hours) [%] | activity at 5 ppm (two-spotted spider mites; 5 p.p.m., after 24 hours) [%] | activity at 10 ppm (two-spotted spider mites; 10 p.p.m., after 24 hours) [%] | activity at 20 ppm (two-spotted spider mites; 20 p.p.m., after 24 hours) [%] | activity at 0.04 ppm (two-spotted spider mites; after 24 hours) [%] | activity at 0.08 ppm (two-spotted spider mites; after 24 hours) [%] | activity at 0.16 ppm (two-spotted spider mites; after 24 hours) [%] | activity at 0.31 ppm (two-spotted spider mites; after 24 hours) [%] | activity at 0.63 ppm (two-spotted spider mites; after 24 hours) [%] | other results
1 | COC1CC2(O)C(CO)=CC=CC(C)CC(C)=CCC3CC(CC4(CCC(C)C(C)O4)O3)OC(=O)C2C=C1C (stereo not drawn) [A1] | No pKa | 0 | 19.9 | 100 | 100 | 100 | – | – | – | – | – | Solubility in organic solvents ("easily soluble in n-hexane, benzene, acetone, ethanol and chloroform") (Solubility in solvents; n-hexane, benzene, acetone, ethanol and chloroform): easily; Solubility in water ("Difficultly soluble in water") (Solubility in solvents; water): Difficultly
2 | CC1=CCC2CC(CC3(CCC(C)C(C)O3)O2)OC(=O)C2C=C(C)C(O)C3OCC(=CC=CC(C)C1)C23O (stereo not drawn) [A3] | do. | 100 | 100 | 100 | 100 | 100 | 15.2 | 100 | 98.2 | 100 | 100 | –
3 | CCC1OC2(CCC1C)CC1CC(CC=C(C)CC(C)C=CC=C3COC4C(O)C(C)=CC(C(=O)O1)C34O)O2 (stereo not drawn) [A4] | – | 100 | 100 | 100 | 100 | 100 | 21.3 | 100 | 100 | 100 | 100 | –
4 | COC1C(C)=CC2C(=O)OC3CC(CC=C(C)CC(C)C=CC=C4COC1C42O)OC1(CCC(C)C(C)O1)C3 (stereo not drawn) [B2] | – | 100 | 100 | 100 | 100 | 100 | – | 0 | 16.6 | 80.5 | 100 | pH at which crystallization took place in the titration ([1]; alcohol solution, neutralization titration): ~8.7
5 | CCC1OC2(CCC1C)CC1CC(CC=C(C)CC(C)C=CC=C3COC4C(OC)C(C)=CC(C(=O)O1)C34O)O2 (stereo not drawn) [B3] | – | 100 | 100 | 100 | 100 | 100 | 0 | 18.3 | 74.1 | 100 | 100 | –
6 | OC(c1ccc(Cl)cc1)(c1ccc(Cl)cc1)C(Cl)(Cl)Cl [Kelthane, 1,1-Bis-(p-chlorophenyl)-2,2,2-trichloroethanol] | – | – | – | – | – | – | – | – | – | – | – | activity at 5 ppm (two-spotted spider mites; 24 h): 0%; activity at 10 ppm (two-spotted spider mites; 24 h): 56.4%; activity at 20 ppm (two-spotted spider mites; 24 h): 100%; number of mites living at counting / before spraying (given as fraction) (European red mites; 50 p.m.m. [sic]): 56/128; number of mites living at counting / before spraying (given as fraction) (European red mites; 100 p.p.m.): 8/103; number of mites living at counting / before spraying (given as fraction) (European red mites; 200 p.p.m.): 0/97; activity at 7 ppm (citrus red mites; 7 p.p.m.): 30.8%; activity at 20 ppm (citrus red mites; 20 p.p.m.): 90.9%
7 | COP(=O)(OC)OC=C(Cl)Cl [Reference **] | – | – | – | – | – | – | – | – | – | – | – | mortality at 50 ppm (rice stem borer): 25.5%; mortality at 100 ppm (rice stem borer): 82.1%

Second part, led by results:

Row | pKa (No pKa at pH ranging from 2 to 12) [1] | Compound | activity at 1.25 ppm (two-spotted spider mites; after 24 hours) [%] | activity at 2.5 ppm (two-spotted spider mites; after 24 hours) [%] | activity at 5 ppm (two-spotted spider mites; 5 p.p.m., after 24 hours) [%] | activity at 10 ppm (two-spotted spider mites; 10 p.p.m., after 24 hours) [%] | activity at 20 ppm (two-spotted spider mites; 20 p.p.m., after 24 hours) [%] | activity at 0.04 ppm (two-spotted spider mites; after 24 hours) [%] | activity at 0.08 ppm (two-spotted spider mites; after 24 hours) [%] | activity at 0.16 ppm (two-spotted spider mites; after 24 hours) [%] | activity at 0.31 ppm (two-spotted spider mites; after 24 hours) [%] | activity at 0.63 ppm (two-spotted spider mites; after 24 hours) [%] | other results
8 | No pKa | CC1=CCC2CC(CC3(CCC(C)C(C)O3)O2)OC(=O)C2C=C(COC(=O)c3ccc[nH]3)C(O)C3OCC(=CC=CC(C)C1)C23O (stereo not drawn) [C1] | 100 | 100 | 100 | 100 | 100 | 51.8 | 100 | 100 | 100 | 100 | –
9 | do. | CCC1OC2(CCC1C)CC1CC(CC=C(C)CC(C)C=CC=C3COC4C(O)C(COC(=O)c5ccc[nH]5)=CC(C(=O)O1)C34O)O2 (stereo not drawn) [C2] | 100 | 100 | 100 | 100 | 100 | 97.3 | 100 | 100 | 100 | 100 | –
